Reference: US20120077694A1, “TARGETS IN BREAST CANCER FOR PROGNOSIS OR THERAPY” (The Regents of the University of California, priority 2006, published 2012)

These substances were tested on HCC1954 and CAMA1 cells (assay: Cell growth in 3D culture after shRNA knockdown). Conditions: vs shRNA control.
Assay type: cell-based, human

Colony size / cell growth in 3D culture, colonies were much smaller:
#2969 shPPFIA1: PPFIA1 shRNA hairpin, SEQ ID NO: 192 (CCGGGAGGAGATTGAAAGTCGAGTTCTCGAGAACTCGACTTTCAATCTCCTCTTTTT)
#5149 shNEU3: NEU3 shRNA hairpin, SEQ ID NO: 182 (CCGGAGTGACAACATGCTCCTTCAACTCGAGTTGAAGGAGCATGTTGTCACTTTTTT)
#38160 shFGF3: FGF3 shRNA hairpin, SEQ ID NO: 190 (CCGGGAGCTGGGCTATAATACGTATCTCGAGATACGTATTATAGCCCAGCTCTTTTTG)
